{"source": "ChEMBL document CHEMBL4138123", "about": "“Design, synthesis and biological evaluation of novel pyrazolochalcones as potential modulators of PI3K/Akt/mTOR pathway and inducers of apoptosis in breast cancer cells” (Eur J Med Chem, 2017)", "assay_type_in_all_cases": "functional", "key": {"OVCAR-3 [1]": {"system": "OVCAR-3", "test": "Cytotoxicity against human OVCAR3 cells assessed as cell growth at 10 uM after 48 hrs by sulforhodamine B assay relative to control", "conditions": "OVCAR-3, 48 h, read-out: Activity"}, "UACC-62 [2]": {"system": "UACC-62", "test": "Cytotoxicity against human UACC62 cells assessed as cell growth at 100 uM after 48 hrs by sulforhodamine B assay relative to control", "conditions": "UACC-62, 48 h, read-out: Activity"}, "RPMI-8226 [3]": {"system": "RPMI-8226", "test": "Cytotoxicity against human RPMI8226 cells assessed as cell growth at 1 uM after 48 hrs by sulforhodamine B assay relative to control", "conditions": "RPMI-8226, 48 h, read-out: Activity"}, "TK-10": {"system": "TK-10", "test": "Cytotoxicity against human TK10 cells assessed as cell growth at 100 uM after 48 hrs by sulforhodamine B assay relative to control", "conditions": "TK-10, 48 h, read-out: Activity"}, "UACC-257 [4]": {"system": "UACC-257", "test": "Cytotoxicity against human UACC257 cells assessed as cell growth at 0.1 uM after 48 hrs by sulforhodamine B assay relative to control", "conditions": "UACC-257, 48 h, read-out: Activity"}, "SN12C": {"system": "SN12C", "test": "Cytotoxicity against human SN12C cells assessed as growth inhibition after 48 hrs by sulforhodamine B assay"}, "RPMI-8226 [5]": {"system": "RPMI-8226", "test": "Cytotoxicity against human RPMI8226 cells assessed as cell growth at 100 uM after 48 hrs by sulforhodamine B assay relative to control", "conditions": "RPMI-8226, 48 h, read-out: Activity"}, "KM12 [6]": {"system": "KM12", "test": "Cytotoxicity against human KM12 cells assessed as cell growth at 100 uM after 48 hrs by sulforhodamine B assay relative to control", "conditions": "KM12, 48 h, read-out: Activity"}, "UACC-257 [7]": {"system": "UACC-257", "test": "Cytotoxicity against human UACC257 cells assessed as cell growth at 10 uM after 48 hrs by sulforhodamine B assay relative to control", "conditions": "UACC-257, 48 h, read-out: Activity"}, "UACC-62 [8]": {"system": "UACC-62", "test": "Cytotoxicity against human UACC62 cells assessed as cell growth at 0.1 uM after 48 hrs by sulforhodamine B assay relative to control", "conditions": "UACC-62, 48 h, read-out: Activity"}, "T47D": {"system": "T47D", "test": "Cytotoxicity against human T47D cells assessed as cell growth at 10 uM after 48 hrs by sulforhodamine B assay relative to control", "conditions": "read-out: Activity"}, "OVCAR-4": {"system": "OVCAR-4", "test": "Cytotoxicity against human OVCAR4 cells assessed as cell growth at 0.1 uM after 48 hrs by sulforhodamine B assay relative to control", "conditions": "OVCAR-4, 48 h, read-out: Activity"}, "OVCAR-3 [9]": {"system": "OVCAR-3", "test": "Cytotoxicity against human OVCAR3 cells assessed as cell growth at 100 uM after 48 hrs by sulforhodamine B assay relative to control", "conditions": "OVCAR-3, 48 h, read-out: Activity"}, "M14": {"system": "M14", "test": "Cytotoxicity against human M14 cells assessed as cell growth at 1 uM after 48 hrs by sulforhodamine B assay relative to control", "conditions": "M14, 48 h, read-out: Activity"}, "PC-3": {"system": "PC-3", "test": "Cytotoxicity against human PC3 cells assessed as cell growth at 10 uM after 48 hrs by sulforhodamine B assay relative to control", "conditions": "PC-3, 48 h, read-out: Activity"}, "DU-145": {"system": "DU-145", "test": "Cytotoxicity against human DU145 cells assessed as cell growth at 0.1 uM after 48 hrs by sulforhodamine B assay relative to control", "conditions": "DU-145, 48 h, read-out: Activity"}, "NCI/ADR-RES": {"system": "NCI/ADR-RES", "test": "Cytotoxicity against human NCI/ADR-RES cells assessed as cell growth at 0.01 uM after 48 hrs by sulforhodamine B assay relative to control", "conditions": "read-out: Activity"}, "UO-31": {"system": "UO-31", "test": "Cytotoxicity against human UO31 cells assessed as cell growth at 10 uM after 48 hrs by sulforhodamine B assay relative to control", "conditions": "UO-31, 48 h, read-out: Activity"}, "SK-OV-3 [10]": {"system": "SK-OV-3", "test": "Cytotoxicity against human SKOV3 cells assessed as cell growth at 1 uM after 48 hrs by sulforhodamine B assay relative to control", "conditions": "SK-OV-3, 48 h, read-out: Activity"}, "HCC 2998 [11]": {"system": "HCC 2998", "test": "Cytotoxicity against human HCC2998 cells assessed as cell growth at 0.1 uM after 48 hrs by sulforhodamine B assay relative to control", "conditions": "HCC 2998, 48 h, read-out: Activity"}, "K562": {"system": "K562", "test": "Cytotoxicity against human K562 cells assessed as cell growth at 10 uM after 48 hrs by sulforhodamine B assay relative to control", "conditions": "K562, 48 h, read-out: Activity"}, "UACC-257 [12]": {"system": "UACC-257", "test": "Cytotoxicity against human UACC257 cells assessed as cell growth at 1 uM after 48 hrs by sulforhodamine B assay relative to control", "conditions": "UACC-257, 48 h, read-out: Activity"}, "SK-MEL-5": {"system": "SK-MEL-5", "test": "Cytotoxicity against human SK-MEL-5 cells assessed as cell growth at 100 uM after 48 hrs by sulforhodamine B assay relative to control", "conditions": "SK-MEL-5, 48 h, read-out: Activity"}, "SF-539": {"system": "SF-539", "test": "Cytotoxicity against human SF539 cells assessed as cell growth at 100 uM after 48 hrs by sulforhodamine B assay relative to control", "conditions": "SF-539, 48 h, read-out: Activity"}, "OVCAR-3 [13]": {"system": "OVCAR-3", "test": "Cytotoxicity against human OVCAR3 cells assessed as cell growth at 0.01 uM after 48 hrs by sulforhodamine B assay relative to control", "conditions": "OVCAR-3, 48 h, read-out: Activity"}, "KM12 [14]": {"system": "KM12", "test": "Cytotoxicity against human KM12 cells assessed as growth inhibition after 48 hrs by sulforhodamine B assay", "conditions": "KM12, 48 h"}, "NCI-H322M": {"system": "NCI-H322M", "test": "Cytotoxicity against human NCI-H322M cells assessed as cell growth at 10 uM after 48 hrs by sulforhodamine B assay relative to control", "conditions": "read-out: Activity"}, "BT-549": {"system": "BT-549", "test": "Cytotoxicity against human BT549 cells assessed as cell growth at 10 uM after 48 hrs by sulforhodamine B assay relative to control", "conditions": "BT-549, 48 h, read-out: Activity"}, "HCC 2998 [15]": {"system": "HCC 2998", "test": "Cytotoxicity against human HCC2998 cells assessed as cell growth at 1 uM after 48 hrs by sulforhodamine B assay relative to control", "conditions": "HCC 2998, 48 h, read-out: Activity"}, "NCI-H226": {"system": "NCI-H226", "test": "Cytotoxicity against human NCI-H226 cells assessed as cell growth at 1 uM after 48 hrs by sulforhodamine B assay relative to control", "conditions": "NCI-H226, 48 h, read-out: Activity"}, "OVCAR-5": {"system": "OVCAR-5", "test": "Cytotoxicity against human OVCAR5 cells assessed as cell growth at 1 uM after 48 hrs by sulforhodamine B assay relative to control", "conditions": "OVCAR-5, 48 h, read-out: Activity"}, "786-0": {"system": "786-0", "test": "Cytotoxicity against human 786-0 cells assessed as cell growth at 1 uM after 48 hrs by sulforhodamine B assay relative to control", "conditions": "786-0, 48 h, read-out: Activity"}, "SK-OV-3 [16]": {"system": "SK-OV-3", "test": "Cytotoxicity against human SKOV3 cells assessed as cell growth at 10 uM after 48 hrs by sulforhodamine B assay relative to control", "conditions": "SK-OV-3, 48 h, read-out: Activity"}, "Hs-578T": {"system": "Hs-578T", "test": "Cytotoxicity against human Hs 578T cells assessed as growth inhibition after 48 hrs by sulforhodamine B assay"}, "HL-60(TB)": {"system": "HL-60(TB)", "test": "Cytotoxicity against human HL-60(TB) cells assessed as cell growth at 0.1 uM after 48 hrs by sulforhodamine B assay relative to control", "conditions": "HL-60, 48 h, read-out: Activity"}, "SK-MEL-28": {"system": "SK-MEL-28", "test": "Cytotoxicity against human SK-MEL-28 cells assessed as cell growth at 100 uM after 48 hrs by sulforhodamine B assay relative to control", "conditions": "SK-MEL-28, 48 h, read-out: Activity"}}}
{"smiles": "COc1ccc(-c2cc(/C=C/C(=O)c3ccc(OC)c(OC)c3)[nH]n2)cc1", "values": [{"measurement": "growth at 10 µM", "setting": "OVCAR-3 [1]", "value": -95, "unit": "%"}, {"measurement": "growth at 100 µM", "setting": "UACC-62 [2]", "value": -100, "unit": "%"}, {"measurement": "growth at 1 µM", "setting": "RPMI-8226 [3]", "value": 8, "unit": "%"}, {"measurement": "growth at 100 µM", "setting": "TK-10", "value": -98, "unit": "%"}, {"measurement": "growth at 0.1 µM", "setting": "UACC-257 [4]", "value": 86, "unit": "%"}, {"measurement": "GI50", "setting": "SN12C", "value": 1.64, "unit": "µM"}, {"measurement": "LC50", "setting": "SN12C", "value": 8.73, "unit": "µM"}, {"measurement": "TGI", "setting": "SN12C", "value": 3.78, "unit": "µM"}, {"measurement": "growth at 100 µM", "setting": "RPMI-8226 [5]", "value": -62, "unit": "%"}, {"measurement": "growth at 100 µM", "setting": "KM12 [6]", "value": -79, "unit": "%"}, {"measurement": "growth at 10 µM", "setting": "UACC-257 [7]", "value": -67, "unit": "%"}, {"measurement": "growth at 0.1 µM", "setting": "UACC-62 [8]", "value": 93, "unit": "%"}, {"measurement": "growth at 10 µM", "setting": "T47D", "value": -28, "unit": "%"}, {"measurement": "growth at 0.1 µM", "setting": "OVCAR-4", "value": 77, "unit": "%"}, {"measurement": "growth at 100 µM", "setting": "OVCAR-3 [9]", "value": -96, "unit": "%"}, {"measurement": "growth at 1 µM", "setting": "M14", "value": 97, "unit": "%"}, {"measurement": "growth at 10 µM", "setting": "PC-3", "value": -61, "unit": "%"}, {"measurement": "growth at 0.1 µM", "setting": "DU-145", "value": 109, "unit": "%"}, {"measurement": "growth at 0.01 µM", "setting": "NCI/ADR-RES", "value": 102, "unit": "%"}, {"measurement": "growth at 10 µM", "setting": "UO-31", "value": -96, "unit": "%"}, {"measurement": "growth at 1 µM", "setting": "SK-OV-3 [10]", "value": 112, "unit": "%"}, {"measurement": "growth at 0.1 µM", "setting": "HCC 2998 [11]", "value": 105, "unit": "%"}, {"measurement": "growth at 10 µM", "setting": "K562", "value": 1, "unit": "%"}, {"measurement": "growth at 1 µM", "setting": "UACC-257 [12]", "value": 87, "unit": "%"}, {"measurement": "growth at 100 µM", "setting": "SK-MEL-5", "value": -100, "unit": "%"}, {"measurement": "growth at 100 µM", "setting": "SF-539", "value": -99, "unit": "%"}, {"measurement": "growth at 0.01 µM", "setting": "OVCAR-3 [13]", "value": 106, "unit": "%"}, {"measurement": "GI50", "setting": "KM12 [14]", "value": 1.38, "unit": "µM"}, {"measurement": "LC50", "setting": "KM12 [14]", "value": 7.01, "unit": "µM"}, {"measurement": "TGI", "setting": "KM12 [14]", "value": 3.11, "unit": "µM"}, {"measurement": "growth at 10 µM", "setting": "NCI-H322M", "value": -32, "unit": "%"}, {"measurement": "growth at 10 µM", "setting": "BT-549", "value": -70, "unit": "%"}, {"measurement": "growth at 1 µM", "setting": "HCC 2998 [15]", "value": 102, "unit": "%"}, {"measurement": "growth at 1 µM", "setting": "NCI-H226", "value": 76, "unit": "%"}, {"measurement": "growth at 1 µM", "setting": "OVCAR-5", "value": 77, "unit": "%"}, {"measurement": "growth at 1 µM", "setting": "786-0", "value": 86, "unit": "%"}, {"measurement": "growth at 10 µM", "setting": "SK-OV-3 [16]", "value": 29, "unit": "%"}, {"measurement": "GI50", "setting": "Hs-578T", "value": 3.38, "unit": "µM"}, {"measurement": "LC50", "setting": "Hs-578T", "value": "> 100", "unit": "µM"}, {"measurement": "TGI", "setting": "Hs-578T", "value": 29, "unit": "µM"}, {"measurement": "growth at 0.1 µM", "setting": "HL-60(TB)", "value": 104, "unit": "%"}, {"measurement": "growth at 100 µM", "setting": "SK-MEL-28", "value": -100, "unit": "%"}]}
